Experimental data from EP0302934A1, “ALICYCLIC DICARBOXYLIC ACID DERIVATIVES AND MUSCLE RELAXANTS CONTAINING THEM AS EFFECTIVE INGREDIENTS” (NIPPON ZEON CO., LTD., priority 1987, dated 1988).
Entries after “also recorded” stand apart in the source; their conditions may differ.

Experiments:
ICR male mice = assay: Horizontal wire test; type: in vivo; details: maximum number of fallen mice out of 6 per group; 100 mg/kg-body weight orally, suspended in 0.4% aqueous carboxymethyl cellulose
Excerpt: Thereafter, at constant intervals of time, the mice were suspended by their forepaws on the metallic wire held horizontally, and the number of animals failing to hang was counted.

Wister male rats = assay: Test method using anaemic decerebrate rigidity animals; type: in vivo; details: 3 mg/kg body weight intravenously in polyethylene glycol; three rats per group; visually followed over 60 minutes
Description: Each of Compound 1 and Compound 3 obtained in the synthesis examples was dissolved into 100% polyethylene glycol (molecular weight ca. 400) to prepare test drugs having a concentration of 0.3%. According to the method of Fukuda et al. (Fukuda, H., Ito, T., Hashimoto, S. and Kudo, Y., Japan. J. Pharmacol., (1974) 24; 810), the rigidity was induced in Wister male rats (body weight 250 to 350 g). Thus, by ligating both the common carotid arteries and coagulating the basilarartery by means of high frequency wave, the rigidity was induced in the fore legs of the animals. Using three animals as one group, each test drug was intravenously administered to the animals so that the amount of active ingredient came to 3 mg/kg body weight. Thereafter, whether the rigidity in the fore legs of the rat was relaxed or not was visually followed over a continuous 60 minutes.

in vivo = assay: in vivo; design: species or system mice; details: mouse, po
Description: ICR male mice (body weight 20 to 30 g, 10 animals per one group) were used for the test.
A test drug was prepared by suspending Compound 3 into 0.4% aqueous solution of carboxymethyl cellulose, and it was orally administered.
Thereafter, the state of the animals was visually observed for 5 days. As the result, LD50 (mg/kg) was 1,000 mg/kg or more.

Compound | No. of fallen cases (ICR male mice) | rigidity in the fore legs relaxed or not (Wister male rats) | LD50 at 120 h (in vivo)
2-(3',5'-Dichlorophenylcarbamoyl)-3(6)-methyl-4-cyclohexenecarboxylic Acid [Compound 5] | 3 | – | –
CC1C=CCC2C(=O)N(c3cc(Cl)cc(Cl)c3)C(=O)C12 (centres unmarked) [Compound 1, N-(3^1,5^1-Dichlorophenyl)-3-methyl-4-cyclohexene-l,2-dicarboxylic Acid Imide] | 5 | the rigidity disappeared | –
CC1C=CC(C)C2C(=O)N(c3cc(Cl)cc(Cl)c3)C(=O)C12 (centres unmarked) [Compound 3, N-(3',5'-Dichlorophenyl)-3,6-dimethyl-4-cyclohexene-1,2-dicarboxylic acid imide] | 3 | the rigidity disappeared; also recorded: particularly marked rigidity - eliminating effect | ≥ 1000 mg/kg
CC1CCC(C)C2C(=O)N(c3cc(Cl)cc(Cl)c3)C(=O)C12 (centres unmarked) [Compound 4, N-(3' ,5'-Dichlorophenyl)-3,6-dimethyicyclo-hexane-l,2-dicarboxylic acid imide] | 3 | – | –
CC1C=CC(C)C(C(=O)Nc2cc(Cl)cc(Cl)c2)C1C(=O)[O-].[Na+] (centres unmarked) [Compound 7, Sodium 2-(3',5'-Dichlorophenyl-carbamoyl)-3,6-dimethyl-4-cyclohexenecarboxylate] | 3 | – | –
